ChEMBL document CHEMBL3588815, “Distinct Temporal Fingerprint for Cyclic Adenosine Monophosphate (cAMP) Signaling of Indole-2-carboxamides as Allosteric Modulators of the Cannabinoid Receptors” (J Med Chem, 2015)
Calls of active or inactive are those of the source. No cut-off for these calls is given here.

What was measured:
[1] = target: T1, Cannabinoid receptor 1 (Homo sapiens, UniProt P21554); assay: Allosteric modulator activity at hemagglutinin-tagged human CB1 receptor expressed in HEK293 cells assessed as effect on CP55,940-induced inhibition of forskolin-induced cAMP accumulation by kinetic cAMP assay; type: functional, cell-based
[2] = target: T2, Cannabinoid receptor 2 (Homo sapiens, UniProt P34972); assay: Allosteric agonist activity at hemagglutinin-tagged human CB2 receptor expressed in HEK293 cells assessed as effect on forskolin-induced cAMP accumulation at 10 uM by kinetic cAMP assay; type: functional, cell-based
[3] = target: T1, Cannabinoid receptor 1; assay: Allosteric agonist activity at hemagglutinin-tagged human CB1 receptor expressed in HEK293 cells assessed as effect on forskolin-induced cAMP accumulation at 10 uM by kinetic cAMP assay; type: functional, cell-based
[4] = target: T1, Cannabinoid receptor 1; assay: Activity at hemagglutinin-tagged human CB1 receptor expressed in HEK293 cells assessed as effect on forskolin-induced cAMP accumulation after 5 mins in presence of CP55,940 by cAMP BRET assay; type: functional, cell-based
[5] = target: T1, Cannabinoid receptor 1; assay: Inverse agonist activity at hemagglutinin-tagged human CB1 receptor expressed in HEK293 cells assessed as effect on forskolin-induced cAMP accumulation after 5 to 15 mins in presence of CP55,940 by cAMP BRET assay; type: functional, cell-based
[6] = target: T2, Cannabinoid receptor 2; assay: Allosteric modulator activity at hemagglutinin-tagged human CB2 receptor expressed in Flp-In-293 cells assessed as effect on CP55,940-induced inhibition of forskolin-induced cAMP accumulation by kinetic cAMP assay; type: functional, cell-based
[7] = target: T1, Cannabinoid receptor 1; assay: Activity at hemagglutinin-tagged human CB1 receptor expressed in HEK293 cells assessed as effect on forskolin-induced cAMP accumulation after 10 mins in presence of CP55,940 by cAMP BRET assay; type: functional, cell-based
[8] = target: T1, Cannabinoid receptor 1; assay: Activity at hemagglutinin-tagged human CB1 receptor expressed in HEK293 cells assessed as effect on forskolin-induced cAMP accumulation after 15 mins in presence of CP55,940 by cAMP BRET assay; type: functional, cell-based
[9] = target: T1, Cannabinoid receptor 1; assay: Activity at hemagglutinin-tagged human CB1 receptor expressed in HEK293 cells assessed as effect on forskolin-induced cAMP accumulation in presence of CP55,940 by cAMP BRET assay; type: functional, cell-based
[10] = target: T1, Cannabinoid receptor 1; assay: Slow antagonist/Inverse agonist activity at hemagglutinin-tagged human CB1 receptor expressed in HEK293 cells assessed as reversal of 1 uM CP55,940-induced inhibition of 5 uM forskolin-induced cAMP accumulation by kinetic cAMP assay; type: functional, cell-based
[11] = target: T2, Cannabinoid receptor 2; assay: Antagonist activity against hemagglutinin-tagged human CB2 receptor expressed in HEK293 cells assessed as suppression of CP55,940-induced inhibition of forskolin-induced cAMP accumulation by cAMP BRET assay; type: functional, cell-based
[12] = target: T1, Cannabinoid receptor 1; assay: Inverse agonist activity at hemagglutinin-tagged human CB1 receptor expressed in HEK293 cells assessed as increase in forskolin-induced cAMP accumulation in absence of CP55,940 at 10 uM and 31.6 uM by cAMP BRET assay; type: functional, cell-based
[13] = target: T1, Cannabinoid receptor 1; assay: Activity at human CB1 receptor expressed in AtT20 cells assessed as effect on 1 uM CP55,940-induced peak hyperpolarization up to 10 uM by membrane potential assay; type: cell-based
[14] = target: T2, Cannabinoid receptor 2; assay: Activity at hemagglutinin-tagged human CB2 receptor expressed in HEK293 cells assessed as increase in forskolin-induced cAMP accumulation in absence of CP55,940 by cAMP BRET assay; type: functional, cell-based
[15] = target: T1, Cannabinoid receptor 1; assay: Activity at human CB1 receptor expressed in AtT20 cells assessed as increase in rate of repolarization at 0.1 to 10 uM in presence of 1 uM CP55,940 by membrane potential assay; type: cell-based
[16] = target: T1, Cannabinoid receptor 1; assay: Inverse agonist activity at hemagglutinin-tagged human CB1 receptor expressed in HEK293 cells assessed as increase in forskolin-induced cAMP accumulation in absence of CP55,940 at 31.6 uM by cAMP BRET assay; type: functional, cell-based
[17] = tested on: HEK293; assay: Reduction in cAMP accumulation in HEK293 cells by kinetic cAMP assay; type: ADME, cell-based; conditions: human
[18] = target: T2, Cannabinoid receptor 2; assay: Activity at hemagglutinin-tagged human CB2 receptor expressed in HEK293 cells assessed as inhibition of forskolin-induced cAMP accumulation in absence of CP55,940 by cAMP BRET assay; type: functional, cell-based

T2 sequence (P34972 whole entry): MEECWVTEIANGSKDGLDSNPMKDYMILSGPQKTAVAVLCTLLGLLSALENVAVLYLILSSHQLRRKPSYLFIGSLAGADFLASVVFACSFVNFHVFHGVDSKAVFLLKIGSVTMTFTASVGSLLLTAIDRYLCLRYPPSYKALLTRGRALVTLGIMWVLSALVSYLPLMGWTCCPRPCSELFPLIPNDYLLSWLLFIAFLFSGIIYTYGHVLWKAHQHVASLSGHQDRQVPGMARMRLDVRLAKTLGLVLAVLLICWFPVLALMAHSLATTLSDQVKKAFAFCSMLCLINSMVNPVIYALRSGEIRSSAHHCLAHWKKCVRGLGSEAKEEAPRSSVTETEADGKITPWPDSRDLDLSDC
T1 sequence (P21554 whole entry): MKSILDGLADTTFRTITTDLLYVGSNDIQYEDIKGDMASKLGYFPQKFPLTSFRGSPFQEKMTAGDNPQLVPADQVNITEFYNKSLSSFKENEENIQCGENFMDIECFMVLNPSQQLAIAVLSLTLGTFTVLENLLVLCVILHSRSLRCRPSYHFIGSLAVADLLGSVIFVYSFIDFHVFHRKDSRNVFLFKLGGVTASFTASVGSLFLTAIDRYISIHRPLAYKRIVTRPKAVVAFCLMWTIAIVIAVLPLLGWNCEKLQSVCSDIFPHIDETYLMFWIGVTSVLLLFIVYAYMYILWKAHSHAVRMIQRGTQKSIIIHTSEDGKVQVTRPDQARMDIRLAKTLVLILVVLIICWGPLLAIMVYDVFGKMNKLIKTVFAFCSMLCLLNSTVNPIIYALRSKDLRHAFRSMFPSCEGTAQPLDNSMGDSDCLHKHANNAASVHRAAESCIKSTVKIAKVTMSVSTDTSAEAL

| Activity [1] | Activity [2] | Activity [3] | EC50 [4] [nM] | Activity [5] | Activity [6] | EC50 [7] [nM] | EC50 [8] [nM] | EC50 [9] [nM] | inhibition [10] | Activity [12] | Activity [13] | Activity [14] | Activity [15] | Activity [16] | EC50 ([7]; hek293) [nM] | EC50 ([9]; hek293) [nM] | EC50 [18] [nM] | Structure (SMILES) | inhibition [11] | Activity [17] |
| --- | --- | --- | --- | --- | --- | --- | --- | --- | --- | --- | --- | --- | --- | --- | --- | --- | --- | --- | --- | --- |
| Active | inactive | inactive | 7370 | Active | inactive | 4580 | 8960 | 4990 |  |  |  |  |  |  |  |  |  | CCc1c(C(=O)NCCc2ccc(F)cc2)[nH]c2ccc(Cl)cc12 |  |  |
| Active | Active | Active | 6840 | Active | inactive | 2990 | 3550 | 4010 |  |  | inactive | Active | Active | Active |  |  |  | CCc1c(C(=O)NCCc2ccc(N3CCCCC3)cc2)[nH]c2ccccc12 |  |  |
| Active | inactive | Active | 3430 | Active | inactive | 430 | 210 | 600 | Active | Active |  |  |  |  |  |  |  | CCc1c(C(=O)NCCc2ccc(N(C)C)cc2)[nH]c2ccc(Cl)cc12 |  |  |
| inactive | inactive | inactive |  |  | inactive |  |  |  | Active |  |  |  |  |  |  |  |  | CCc1c(C(=O)NCCc2ccc(N3CCCC3)cc2)[nH]c2ccc(Cl)cc12 |  |  |
| Active | inactive | inactive | 8180 | Active | inactive | 1840 | 20000 | 3420 |  |  | inactive |  | Active |  |  |  |  | CCc1c(C(=O)NCCc2ccc(Cl)cc2)[nH]c2ccc(Cl)cc12 |  |  |
| Active | inactive | inactive | 1010 | Active | inactive | 600 | 470 | 790 |  |  | inactive |  | Active |  |  |  |  | CCc1c(C(=O)NCCc2ccc(C)cc2)[nH]c2ccc(Cl)cc12 |  |  |
| Active | inactive | Active | 13400 | Active | inactive | 2970 | 1510 | 2660 |  | Active |  |  |  |  |  |  |  | CC(O)c1c(C(=O)NCCc2ccc(N3CCCCC3)cc2)[nH]c2ccc(Cl)cc12 (centres undefined) |  |  |
| inactive | Active | Active |  |  | Active |  |  |  |  |  |  |  |  |  |  |  |  | CCc1c(C(=O)NCCc2ccc(N)cc2)[nH]c2ccc(Cl)cc12 |  | Toxic |
| Active | inactive | inactive |  |  | inactive |  |  |  |  |  |  |  |  |  |  |  |  | O=C(NCCc1ccc([N+](=O)[O-])cc1)c1cc2cc(Cl)ccc2[nH]1 |  |  |
| Active | inactive | inactive | < 10000 |  | inactive |  | < 10000 |  |  |  |  |  |  |  | < 10000 | < 10000 |  | CCc1c(C(=O)OCCc2ccc(NC)cc2)[nH]c2ccc(Cl)cc12 |  |  |
| Active | inactive | Active | 10600 | Active | inactive | 2090 | 640 | 2240 |  | Active | inactive |  | Active |  |  |  |  | CCc1c(C(=O)NCCc2ccc(N3CCCCC3)cc2)[nH]c2ccc(Cl)cc12 |  |  |
| inactive | Active | inactive |  |  | inactive |  |  |  |  |  |  |  |  |  |  |  | 130 | CCc1c(C(=O)OCCc2ccc(N3CCCCC3)cc2)[nH]c2ccc(Cl)cc12 |  |  |

| Structure (SMILES) | Activity [1] | Activity [2] | Activity [3] | EC50 [4] [nM] | Activity [5] | Activity [6] | EC50 [7] [nM] | EC50 [8] [nM] | EC50 [9] [nM] | inhibition [10] | Activity [12] | Activity [13] | Activity [14] | Activity [15] | Activity [16] | EC50 ([7]; hek293) [nM] | EC50 ([9]; hek293) [nM] | EC50 [18] [nM] | inhibition [11] | Activity [17] |
| --- | --- | --- | --- | --- | --- | --- | --- | --- | --- | --- | --- | --- | --- | --- | --- | --- | --- | --- | --- | --- |
| CCc1c(C(=O)NCCc2ccc([N+](=O)[O-])cc2)[nH]c2ccc(Cl)cc12 | Active | inactive | Active | 3590 | Active | Active | 660 | 440 | 1140 | Active | Active |  |  |  |  |  |  |  | Active |  |
| O=C(NCCc1ccc(Cl)cc1)c1cc2cc(Cl)ccc2[nH]1 | inactive | inactive | inactive |  |  | inactive |  |  |  |  |  |  |  |  |  |  |  |  |  |  |
| O=C(NCCc1ccc(N2CCCCC2)cc1)c1cc2cc(Cl)ccc2[nH]1 | inactive | inactive | inactive |  |  | inactive |  |  |  |  |  |  |  |  |  |  |  |  |  |  |
